Data taken from patent publication US20070004650A1, “Endurance improving agent” (KAO CORPORATION, priority 2003, published 2007).

Tests used:
Type in all cases: cell-based, mouse
phospho-AMPK α (Thr72) = test: AMPK activation in Hepa 1-6 cells, phospho-AMPK α Western blot; conditions: for AMPK-activating effect (summary in words): Hepa 1-6, results of Tables 4 to 6; for Phospho-AMPK α: 60 minutes, Hepa 1-6, band intensity relative to control = 100
Method: (§1) Test 3 (AMPK Activating Effect of Catechins)
(§2) Using a mouse hepatocyte line (Hepa 1-6), activation of AMPK was assessed based on degrees of phosphorylation of AMPK and ACC (acetyl-CoA carboxylase) as indices.
The mouse hepatocyte line (Hepa 1-6) was seeded in a 25-cm^2 flask, and cultured in DMEM (+10% FBS, +antimicrobial agent) at 37° C. for 1 to 2 days. When the culture has become subconfluent, the medium was removed. After washed with PBS(−),DMEM(−FBS)was added as a replacement medium, followed by further culture for 1 day. Subsequent to removal of the medium, DMEM (−FBS) with catechins and a tea extract added at predetermined concentrations therein was added, followed by culture for 60 minutes. Subsequent to removal of the medium and washing with PBS (−), a lytic solution [10 mM Tris (pH 7.4), 50 mM NaCl, 30 mM sodium pyrophosphate, 0.5% Triton X-100, protease inhibitor cocktail (“SIGMA P2714”), phosphatase inhibitor cocktail-1 (“SIGMA P2850”), phosphatase inhibitor cocktail 1-2 (“SIGMA P5726”); 200 μL] was added, and a lysate was collected by a cell scraper. The thus-collected lysate was caused to pass three times through a syringe with 23 G needle so that the lysate was homogenized. The homogenized lysate was then allowed stand on ice for 30 minutes. The lysate was centrifuged at 15,000 rpm and at 4° C. for 15 minutes, and proteins in supernatant were provided for use in the following experiment.
After the concentration of the proteins in supernatant was measured, it was adjusted such that the protein concentration became identical among the samples. A ¼ volume of SDS buffer (250 mM Tris, 12.5% SDS, 20% glycerol) was added, followed by further addition of 2-mercaptoethanol and bromophenol blue. The resulting mixture was subjected to thermal denaturation at 95° C., and was then quenched at 4° C. to provide a sample for electrophoresis.
A predetermined amount (about 20 to 40 μg) of the sample for electrophoresis was subjected to SDS-PAGE (4 or 12% gel). After transferred onto a membrane, phospho-AMPK α (Thr72), phospho-AMPK β (Ser108) and phospho-ACC (Ser79) were detected using an anti-phospho-AMPK α antibody (product of Cell Signaling Technology, Inc.), an anti-phospho-AMPK β antibody (product of Cell Signaling Technology, Inc.) or an anti-phospho-ACC antibody (product of Cell Signaling Technology, Inc.) as a primary antibody, an anti-rabbit-HRP antibody (product of Amersham Biosciences, Inc.) as a secondary antibody, and a phototope-HRP Western detection system (product of Cell Signaling Technology, Inc.) as a detection reagent. The intensities of detected bands were converted into numerical values (pixels) by an image analysis (“EDAS 290 Image Analysis System”, Kodak Company). Supposing that the corresponding band intensities of the control (catechins non-added group) were 100, the numerical values (pixels) were indicated as relative values to the values of the control. It is to be noted that as catechin samples, products of SIGMA Corporation or Wako Pure Chemical Industries, Ltd. were used. As the tea extract (tea catechins), “TEAFURAN” (product of ITO EN, LTD.) as used.

phospho-AMPK β (Ser108) = test: AMPK activation in Hepa 1-6 cells, phospho-AMPK β Western blot; conditions: 60 minutes, band intensity relative to control = 100
Method: as §1, §2
The mouse hepatocyte line (Hepa 1-6) was seeded in a 25-cm^2 flask, and cultured in DMEM (+10% FBS, +antimicrobial agent) at 37° C. for 1 to 2 days. When the culture has become subconfluent, the medium was removed. After washed with PBS(−),DMEM(−FBS)was added as a replacement medium, followed by further culture for 1 day. […]
After the concentration of the proteins in supernatant was measured, it was adjusted such that the protein concentration became identical among the samples. […]
A predetermined amount (about 20 to 40 μg) of the sample for electrophoresis was subjected to SDS-PAGE (4 or 12% gel). After transferred onto a membrane, phospho-AMPK α (Thr72), phospho-AMPK β (Ser108) and phospho-ACC (Ser79) were detected using an anti-phospho-AMPK α antibody (product of Cell Signaling Technology, Inc.), an anti-phospho-AMPK β antibody (product of Cell Signaling Technology, Inc.) or an anti-phospho-ACC antibody (product of Cell Signaling Technology, Inc.) as a primary antibody, an anti-rabbit-HRP antibody (product of Amersham Biosciences, Inc.) as a secondary antibody, and a phototope-HRP Western detection system (product of Cell Signaling Technology, Inc.) as a detection reagent. […]

phospho-ACC (Ser79) = test: AMPK activation in Hepa 1-6 cells, phospho-ACC Western blot; conditions: 60 minutes, band intensity relative to control = 100
Method: The mouse hepatocyte line (Hepa 1-6) was seeded in a 25-cm^2 flask, and cultured in DMEM (+10% FBS, +antimicrobial agent) at 37° C. for 1 to 2 days. When the culture has become subconfluent, the medium was removed. After washed with PBS(−),DMEM(−FBS)was added as a replacement medium, followed by further culture for 1 day. Subsequent to removal of the medium, DMEM (−FBS) with catechins and a tea extract added at predetermined concentrations therein was added, followed by culture for 60 minutes. […]
A predetermined amount (about 20 to 40 μg) of the sample for electrophoresis was subjected to SDS-PAGE (4 or 12% gel). […] The intensities of detected bands were converted into numerical values (pixels) by an image analysis (“EDAS 290 Image Analysis System”, Kodak Company). […]

Compound | AMPK-activating effect (summary in words) (phospho-AMPK α (Thr72)) | Phospho-AMPK α (phospho-AMPK α (Thr72); Table 4, 150 μM) | also measured
Oc1cc(O)c2c(c1)O[C@H](c1cc(O)c(O)c(O)c1)[C@H](O)C2 [Epigallocatechin] | excellent AMPK-activating effect | 435 | –
O=C(O[C@@H]1Cc2c(O)cc(O)cc2O[C@H]1c1cc(O)c(O)c(O)c1)c1cc(O)c(O)c(O)c1 [Gallocatechingallate] | excellent AMPK-activating effect | 1124 | –
Oc1cc(O)c2c(c1)O[C@H](c1ccc(O)c(O)c1)[C@H](O)C2 [Epicatechin] | – | 246 | –
O=C(O[C@@H]1Cc2c(O)cc(O)cc2O[C@@H]1c1cc(O)c(O)c(O)c1)c1cc(O)c(O)c(O)c1 [Epigallocatechingallate] | excellent AMPK-activating effect | 1085 | Phospho-AMPK α (phospho-AMPK α (Thr72); Table 5, 100 μM): 198; Phospho-AMPK α (phospho-AMPK α (Thr72); Table 5, 150 μM): 261; Phospho-AMPK β (phospho-AMPK β (Ser108); Table 5, 100 μM): 120; Phospho-AMPK β (phospho-AMPK β (Ser108); Table 5, 150 μM): 149; Phospho-ACC (phospho-ACC (Ser79); Table 5, 100 μM): 220; Phospho-ACC (phospho-ACC (Ser79); Table 5, 150 μM): 304
Oc1cc(O)c2c(c1)O[C@H](c1cc(O)c(O)c(O)c1)[C@@H](O)C2 [Gallocatechin] | excellent AMPK-activating effect | 451 | –
Catechingallate | – | 369 | –
O=C(O[C@@H]1Cc2c(O)cc(O)cc2O[C@@H]1c1ccc(O)c(O)c1)c1cc(O)c(O)c(O)c1 [Epicatechingallate] | – | 256 | –
Catechin | – | 78 | –
